Results from US20160310505A1, “PROSTAMIDES FOR ENHANCEMENT OF LEPTIN PRODUCTION” (Allergan, Inc., priority 2013, published 2016).
“Also recorded” adds a separate entry of the source.

What was measured:
human pre-adipocytes = experiment: Leptin production in human pre-adipocytes; format: cell-based; details: 1 μM, 8 days, vehicle DMSO
Protocol: Vehicle is DMSO, bimatoprost treatment at 1 μM. Stimulation of leptin over 8-days of bimatoprost treatment; In FIG. 1, bimatoprost was applied topically once per day for 6 months to rats. […] FIG. 2 describes the systemic exposure (topically applied) of bimatoprost by measuring blood levels of the compound after treatment. […] The in vivo action of bimatoprost is likely a dual mechanism to inhibit food intake and suppress replenishment of fat cells during normal turnover. […] Blood was drawn every 2 weeks and the serum was analyzed for leptin levels by luminex assay. […] A cafeteria diet is a high sugar and fat diet with typical “junk food”: […]

Leptin = experiment: Serum leptin levels by luminex assay in male rats on a cafeteria diet; format: in vivo
Protocol: In FIG. 1, bimatoprost was applied topically once per day for 6 months to rats. […] FIG. 2 describes the systemic exposure (topically applied) of bimatoprost by measuring blood levels of the compound after treatment. […] The in vivo action of bimatoprost is likely a dual mechanism to inhibit food intake and suppress replenishment of fat cells during normal turnover. […] Blood was drawn every 2 weeks and the serum was analyzed for leptin levels by luminex assay. […] A cafeteria diet is a high sugar and fat diet with typical “junk food”: […]

pre-adipocyte = experiment: Pre-adipocyte differentiation; format: cell-based
[1] = Patient use examples (transdermal patch or topical gel); format: in vivo, human
From the text: A person who is morbidly obese applies a bimatoprost transdermal skin patch on their arm, which uniformly releases a 5% w/w bimatoprost formulation over a thirty day period. […] The patient loses 6 pounds more than they would have otherwise lost without using the bimatoprost transdermal skin patch. A person applies a 3% w/w bimatoprost gel to their skin once a day. […] A person with elevated blood pressure has been determined by doctors to have prediabetes. In addition to being on a low fat, low sugar diet, the patient uses a transdermal bimatoprost patch which releases a 3% w/w bimatoprost formulation through the dermis and into the blood stream. […] A person is diagnosed with non-alcoholic fatty liver. The patient applies a transdermal bimatoprost patch which releases a 2% w/w bimatoprost formulation. […] A healthy person in an effort to lose weight is on a low fat diet. In order to suppress their appetite, the person applies a bimatoprost transdermal patch which continually releases 1% w/w bimatoprost for 30 days.

[2] = Cafeteria diet induced fatty liver in rats, liver histology; format: in vivo; details: cafeteria diet 10 weeks
From the text: Rats were fed the cafeteria diet for 10 weeks and administered bimatoprost daily. At the end of 10 weeks, livers were resected and examined by histology. […] This has important consequences in the potential treatment of non-alcoholic fatty liver disease (NAFLD).

[3] = Once a day topical application to rats for six months (subcutaneous fat, body weight); format: in vivo; details: for subcutaneous fat: topical once a day, six months, ~10% body surface coverage; for body weight (FIG. 2): topical treatment
From the text: Bimatoprost (AGN 192024) is a synthetic prostamide which has been used in intraocular pressure lowering therapeutics such as LUMIGAN® 0.03, LUMIGAN® 0.01 and GANFORT®. […] In FIG. 1, bimatoprost was applied topically once per day for 6 months to rats. […] FIG. 2 describes the systemic exposure (topically applied) of bimatoprost by measuring blood levels of the compound after treatment. […] The in vivo action of bimatoprost is likely a dual mechanism to inhibit food intake and suppress replenishment of fat cells during normal turnover. […] Blood was drawn every 2 weeks and the serum was analyzed for leptin levels by luminex assay. […] A cafeteria diet is a high sugar and fat diet with typical “junk food”: […]

[4] = Example 1: transdermal skin patch, 5% w/w, thirty days
[5] = Example 3: prediabetes patient, transdermal patch, 3% w/w
[6] = Example 5: transdermal patch, 1% w/w, 30 days

CCNC(=O)CCC/C=C\C[C@@H]1[C@@H](/C=C/[C@@H](O)CCc2ccccc2)[C@H](O)C[C@@H]1O [bimatoprost, Bimatoprost]
leptin production (FIG. 3) (human pre-adipocytes): increases Leptin production; also recorded: increase in leptin production | serum leptin levels (Leptin; male rats on cafeteria diet, 0.3% bimatoprost in BSHG formulation topical daily, p<0.01, 2-way ANOVA): elevated levels of Leptin | leptin levels (FIG. 4) (Leptin; rats on a cafeteria diet, topical daily): elevated leptin levels | differentiation of pre-adipocytes (pre-adipocyte): inhibit differentiation | leptin levels ([1]; Example 1: morbidly obese person, transdermal skin patch, 5% w/w, thirty days): leptin levels increase | additional weight lost versus no patch [1, 4]: 6 pounds | appetite [1, 4]: suppressed appetite | leptin levels ([1]; Example 2: 3% w/w gel on skin once a day, after several days): elevated leptin levels | appetite ([1]; Example 2: 3% w/w gel once a day): suppresses appetite | body weight ([1]; Example 2: 3% w/w gel once a day, sixty day period): maintains their weight | appetite [1, 5]: reduction in appetite | blood leptin levels [1, 5]: immediate increase in blood leptin levels | body weight [1, 5]: weight loss | lipidosis in the liver ([1]; Example 4: non-alcoholic fatty liver patient, transdermal patch, 2% w/w): reduction in lipidosis in the liver | leptin levels ([1]; Example 5: healthy female on low fat diet, transdermal patch, 1% w/w, 30 days): leptin levels rise | appetite [1, 6]: suppression of their appetite | body weight [1, 6]: greater weight loss | liver lipidosis ([2]; 0.3% bimatoprost formulation daily): reduced lipidosis as compared to the control | liver lipidosis ([2]; 1% bimatoprost formulation daily): reduced lipidosis as compared to the control | cafeteria diet induced fatty liver changes (FIG. 5) ([2]; topical daily): dose-dependently decreases cafeteria diet induced fatty liver changes; also recorded: inhibited cafeteria diet induced fatty liver disease | subcutaneous fat at sites distal to the application site (FIG. 1) ([3]; 3% w/v bimatoprost vs vehicle): subcutaneous fat reduction at sites distal to the application site | subcutaneous fat [3]: substantial local subcutaneous fat reduction, as well as reduction at adjunct and distal sites | subcutaneous fat ([3]; listed as Bimatoprost): subcutaneous fat loss at sites distant from the application site | body weight (FIG. 2) [3]: reduction in body weight | body weight (FIG. 2) ([3]; listed as Bimatoprost): reduction in weight over time
